Ki data for 15 compounds are collected here from patent EP0907632B1, “INHIBITION OF MATRIX METALLOPROTEASES BY SUBSTITUTED PHENETHYL COMPOUNDS” (Bayer Corporation, priority 1996, dated 1997).

The structures appear in SMILES notation.

The target of assay [1] is T1, MMP-2 (Homo sapiens, UniProt P08253).
T1 sequence (P08253 110-660): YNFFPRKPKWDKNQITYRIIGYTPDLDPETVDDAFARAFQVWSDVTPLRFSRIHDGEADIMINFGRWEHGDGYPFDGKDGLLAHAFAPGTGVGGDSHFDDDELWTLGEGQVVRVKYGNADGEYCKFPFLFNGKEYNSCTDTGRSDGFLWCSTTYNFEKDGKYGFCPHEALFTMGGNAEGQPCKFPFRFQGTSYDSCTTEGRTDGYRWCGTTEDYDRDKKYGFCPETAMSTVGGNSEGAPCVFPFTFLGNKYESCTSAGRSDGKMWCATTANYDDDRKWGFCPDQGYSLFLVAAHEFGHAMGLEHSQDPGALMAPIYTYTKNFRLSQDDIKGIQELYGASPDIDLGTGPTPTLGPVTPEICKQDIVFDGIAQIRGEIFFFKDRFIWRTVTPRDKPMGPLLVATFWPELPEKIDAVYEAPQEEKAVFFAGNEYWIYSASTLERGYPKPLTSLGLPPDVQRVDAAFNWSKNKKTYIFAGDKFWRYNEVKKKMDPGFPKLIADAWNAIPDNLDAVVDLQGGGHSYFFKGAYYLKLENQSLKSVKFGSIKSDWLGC
The assay is described as follows: biochemical.

Assay [2] deals with T2, MMP-9 (Homo sapiens, UniProt P14780).
T2 construct: made in house
The class given is biochemical. The conditions noted are these: 6 µM P218 substrate, pH 6.5, 25 min at 37°C; calculated from IC50; read-out: MMP-9 Kf. The source says: (§1) The P218 quenched fluorescence assay (Microfluorometric Profiling Assay) is a modification of that originally described by Knight, et al., FEBS Lett. 296, 263, 1992 for a related substance and a variety of matrix metalloproteinases (MMPs) in cuvettes. The assay was run with each invention compound and the three MMPs, Mmp-3, MMP-9 and MMP-2, analyzed in parallel, adapted as follows for a 96-well microtiter plate and a Hamilton AT® workstation. P218 Fluorogenic Substrate: P218 is a synthetic substrate containing a 4-acetyl-7-methoxycoumarin (MCA) group in the N-terminal position and a 3-[2, 4-dinitrophenyl]-L-2,3-diaminopropionyl (DPA) group internally. This is a modification of a peptide reported by Knight (1992) that was used as a substrate for matrix metalloproteinases. Once the P218 peptide is cleaved (putative clip site at the Ala-Leu bond), the fluorescence of the MCA group can be detected on a fluorometer with excitation at 328 nm and emission at 393 nm. P218 is currently being produced BACHEM exclusively for Bayer. P218 has the structure: H-MCA-Pro-Lys-Pro-Leu-Ala-Leu-DPA-Ala-Arg-NH2 (MW 1332.2)
Recombinant Human Pro-MMP-9: Human pro-gelatinase B (pro-MMP-9) derived from U937 cDNA as described by Wilhelm, et al. J. Biol. Chem. 264, 17213, 1989 was expressed as the full-length form using a baculovirus protein expression system. The pro-enzyme was purified using methods previously described by Hibbs, et al. J. Biol. Chem. 260, 2493, 1984.
Activation of Pro-MMP-9: […] 20 µg/mL in 50 mM Tris at pH 7.4, 10mM CaCl2, 150 mM NaCl, and 0.005% Brij-35 (MMP-9 activation buffer) was activated by incubation with 0.5 mM p-aminophenylmercuric acetate (APMA) for 3.5 h at 37 °C. The enzyme was dialyzed against the same buffer to remove the APMA.
(§2) Hamiltion Microlab AT P!us: The MMP-Profiling Assay is performed robotically on a Hamilton MicroLab AT Plus®. The Hamilton is programmed to: (1) serially dilute up to 11 potential inhibitors automatically from a 2.5 mM stock in 100% DMSO; (2) distribute substrate followed by inhibitor into a 96 well Cytofluor plate; and (3) add a single enzyme to the plate with mixing to start the reaction. Subsequent plates for each additional enzyme are prepared automatically by beginning the program at the substrate addition point, remixing the diluted inhibitors and beginning the reaction by addition of enzyme. In this way, all MMP assays were done using the same inhibitor dilutions.
(§3) Millipore Cytofluor II. Following incubation, the plate was read on a Cytofluor II fluorometric place reader with excitation at 340 nm and emission at 395 nm with the gain set at 80.
(§4) Microfluorometric Reaction Buffer (MRB): Dilution of test compounds, enzymes, and P218 substrate for the microfluorometric assay were made in microfluorometric reaction buffer consisting of 50 mM 2-(N-morpholino)ethanesulfonic acid (MES) at pH 6.5 with 10 mM CaCl2, 150 mM NaCl, 0.005% Brij-35 and 1% DMSO.
(§5) MMP Microfluorometric Profiling Assay. The assay is done with a final substrate concentration of 6 µM P218 and approximately .5 to .8 nM MMP with variable drug concentrations. The Hamilton is programmed to serially dilute up to 11 compounds from a 2.5 mM stock (100% DMSO) to 10x the final compounds concentrations in the assay. Initially, the instrument delivers various amounts of microfluoromentric reaction buffer (MRB) to a 96 tube rack of 1 ml Marsh dilution tubes. The instrument then picks up 20 µl of inhibitor (2.5 mM) from the sample rack and mixes it with a buffer in row A of the Marsh rack, resulting in a 50 µM drug concentration. The inhibitors are then serially diluted to 10, 5, 1, .2, .05 and .01 µM. Position 1 on the sample rack contains only DMSO for the "enzyme-only" wells in the assay, which results in no inhibitor in column 1, rows A through H. The instrument then distributes 107 µl of P218 substrate (8.2 µM in MRB) to a single 96 well cytofluor microtiter plate. […]

Assay [3] addresses T3, MMP-3 (Homo sapiens, UniProt P08254).
T3 construct: made in house; host or cells: CHO cells
It is filed as biochemical. The conditions noted are these: 6 µM P218 substrate, pH 6.5, 25 min at 37°C; calculated from IC50; read-out: MMP-3 Kf.
Source text: as §1
Recombinant Human CHO Pro-MMP-3: Human CHO pro-stromelysin-257 (pro-MMP-3) was expressed and purified as described by Housley, et al., J. Biol. Chem. 268, 4481, 1993.
Activation of Pro-MMP-3 Pro-MMP-3 at 1.72 µM (100 µg/mL) in 5 mM Tris at pH 7.5, 5 mM CaCl2, 25 mM NaCl, and 0.005% Brij-35 (MMP-3 activation buffer) was activated by incubation with TPCK (N-tosyl-(L)-phenylalanine chloromethyl ketone) trypsin (1:100 w/w to pro-MMP-3) at 25 °C for 30 min. The reaction was stopped by addition of soybean trypsin inhibitor (SBTI: 5:1 w/w to trypsin concentration). This activation protocol results in the formation of 45 kDa active MMP-3, which still contains the C-terminal portion of the enzyme.
as §2, §3, §4, §5

T2 sequence (P14780 107-707 limits assumed): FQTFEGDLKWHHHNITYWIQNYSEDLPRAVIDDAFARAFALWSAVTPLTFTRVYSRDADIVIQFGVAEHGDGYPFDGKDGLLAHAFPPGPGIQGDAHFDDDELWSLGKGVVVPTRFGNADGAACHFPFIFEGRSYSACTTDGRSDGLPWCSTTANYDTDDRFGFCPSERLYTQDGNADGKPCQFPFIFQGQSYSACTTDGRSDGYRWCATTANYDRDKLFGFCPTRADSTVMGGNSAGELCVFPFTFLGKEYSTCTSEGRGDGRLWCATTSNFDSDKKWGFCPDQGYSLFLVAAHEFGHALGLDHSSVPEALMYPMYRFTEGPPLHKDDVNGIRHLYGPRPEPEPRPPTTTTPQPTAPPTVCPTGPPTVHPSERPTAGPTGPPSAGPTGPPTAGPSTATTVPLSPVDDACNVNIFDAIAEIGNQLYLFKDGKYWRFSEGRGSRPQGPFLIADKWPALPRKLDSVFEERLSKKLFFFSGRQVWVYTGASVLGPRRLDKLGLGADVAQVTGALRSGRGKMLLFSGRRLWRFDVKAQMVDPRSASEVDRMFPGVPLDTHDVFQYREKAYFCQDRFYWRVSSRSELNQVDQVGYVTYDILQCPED
T3 sequence (P08254 100-477): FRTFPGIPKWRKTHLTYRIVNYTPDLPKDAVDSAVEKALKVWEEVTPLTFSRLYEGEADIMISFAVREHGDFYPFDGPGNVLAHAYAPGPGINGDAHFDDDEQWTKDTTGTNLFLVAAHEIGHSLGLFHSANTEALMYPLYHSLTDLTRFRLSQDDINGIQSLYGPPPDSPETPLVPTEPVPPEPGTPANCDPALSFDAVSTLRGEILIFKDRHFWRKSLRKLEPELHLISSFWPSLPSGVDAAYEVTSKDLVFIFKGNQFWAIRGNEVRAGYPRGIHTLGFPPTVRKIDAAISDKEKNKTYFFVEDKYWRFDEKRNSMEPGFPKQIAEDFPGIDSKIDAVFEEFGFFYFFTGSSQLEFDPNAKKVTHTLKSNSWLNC

Consider `O=C(CC(CCc1cccc(C(=O)N2CCCCC2)c1)C(=O)O)c1ccc(-c2ccc(OCc3ccccc3)cc2)cc1` (centres unmarked) [Compound XXX], for which the Ki in assay [1] is 4.44 nM; in assay [2] it was 102 nM; in assay [3] it was 12.5 nM.
The like results for `O=C(O)CNC(=O)c1ccc(CCC(CC(=O)c2ccc(-c3ccc(Cl)cc3)cc2)C(=O)O)cc1` (stereo not drawn) [Compound XXIV, α-[2-[4[[(carboxymethyl)amino]carbonyl]phenyl]ethyl]-4'-chloro-γ-oxo-[1,1'-biphenyl]-4-butanoic acid] were, in that order, 82.4 nM, 915 nM and 293 nM.
The like results for `O=C(CC(CCc1ccccc1C(=O)NCCc1ccccc1)C(=O)O)c1ccc(-c2ccc(Cl)cc2)cc1` (stereo not drawn) [Compound I, 4'-chloro-γ-oxo-α-[2-[2-[[(2-phenylethyl)amino]carbonyl]phenyl]ethyl]-[1,1'-biphenyl]-4-butanoic acid] were, in that order, 41.1 nM, 173 nM and 127 nM.
Consider `O=C(CC(CCc1ccc(C(=O)N2CCCCC2)cc1)C(=O)O)c1ccc(-c2ccc(Cl)cc2)cc1` (stereo not drawn) [Compound XXI, 4'-chloro-γ-oxo-α-[2-[4-(1-piperidinylcarbonyl)phenyl]ethyl]-[1,1'-Biphenyl]-4-butanoic acid], for which the Ki in assay [1] is 84.1 nM; in assay [2], 806 nM; in assay [3] it was 242 nM.
For `CCCCCOc1ccc(-c2ccc(C(=O)CC(CCc3cccc(C(=O)N4CCCCC4)c3)C(=O)O)cc2)cc1` (stereo not drawn) [Compound XXXI, γ-oxo-4'-(pentyloxy)-α-[2-[3-(1-piperidinylcarbonyl)phenyl]ethyl]-[1,1'-biphenyl]-4-butanoic acid], in that order: 17 nM, 373 nM and 35.8 nM.
`CC(C)CCNC(=O)c1cccc(CCC(CC(=O)c2ccc(-c3ccc(Cl)cc3)cc2)C(=O)O)c1` (stereo not drawn) [XIV, 4'-chloro-α-[2-[3-[[(3-methylbutyl)amino]carbonyl]phenyl]ethyl]-γ-oxo-[1,1'-biphenyl]-4-butanoic acid]: the Ki was 110 nM in assay [1], 707 nM in assay [2] and 308 nM in assay [3].
Consider `CC(C)CCNC(=O)c1ccc(CCC(CC(=O)c2ccc(-c3ccc(Cl)cc3)cc2)C(=O)O)cc1` (stereo not drawn) [XVIII, 4'-chloro-α-[2-[4-[[(3-methylbutyl)amino]carbonyl]phenyl]ethyl]-γ-oxo-[1,1'-biphenyl]-4-butanoic acid], for which the Ki in assay [1] was 137 nM; in assay [2], 452 nM; in assay [3], 677 nM.
The like results for `O=C(CC(CCc1cccc(C(=O)NCc2ccccc2)c1)C(=O)O)c1ccc(-c2ccc(Cl)cc2)cc1` (stereo not drawn) [XV, 4'-chloro-γ-oxo-α-[2-[3-[[(phenylmethyl)amino]carbonyl]phenyl]ethyl]-[1,1'-biphenyl]-4-butanoic acid] were, in that order, 104 nM, 493 nM and 364 nM.
For `O=C(CC(CCc1cccc(C(=O)NCCc2ccccc2)c1)C(=O)O)c1ccc(-c2ccc(Cl)cc2)cc1` (stereo not drawn) [XII, 4'-chloro-γ-oxo-α-[2-[3-[[(2-phenylethyl)amino]carbonyl]phenyl]ethyl]-[1,1'-biphenyl]-4-butanoic acid], in that order: 125 nM, 2650 nM and 450 nM.
For `O=C(O)CCNC(=O)c1ccccc1CCC(CC(=O)c1ccc(-c2ccc(Cl)cc2)cc1)C(=O)O` (centres unmarked) [Compound XXII], in that order: 63.5 nM, 1130 nM and 166 nM.
Turning to `CCOC(=O)CNC(=O)c1ccc(CCC(CC(=O)c2ccc(-c3ccc(Cl)cc3)cc2)C(=O)O)cc1` (stereo not drawn) [XIX, 4'-chloro-α-[2-[4-[[(2-ethoxy-2-oxoethyl)amino]carbonyl]phenyl]ethyl]-γ-oxo[1,1'-biphenyl]4-butanoic acid], the figures for the Ki in assay [1], in assay [2] and in assay [3] were 82.3 nM, 423 nM and 376 nM, respectively.
The like results for `O=C(CC(CCc1cccc(C(=O)NCCCc2ccccc2)c1)C(=O)O)c1ccc(-c2ccc(Cl)cc2)cc1` (stereo not drawn) [XIII, 4'-chloro-γ-oxo-α-[2-[3[[(3-phenylpropyl)amino]carbonyl]phenyl]ethyl]-[1,1'-biphenyl]-4-butanoic acid] were, in that order, 157 nM, 552 nM and 236 nM.
As to `O=C(CC(CCc1cccc(C(=O)N2CCOCC2)c1)C(=O)O)c1ccc(-c2ccc(Cl)cc2)cc1` (stereo not drawn) [Compound X, 4'-chloro-α-[2-[3-(4-morpholinylcarbonyl)phenyl]ethyl]-γ-oxo-[1,1'-biphenyl]-4-butanoic acid], the Ki was 26.1 nM in assay [1], 251 nM in assay [2] and 73.8 nM in assay [3].
For `CCOC(=O)CNC(=O)c1ccccc1CCC(CC(=O)c1ccc(-c2ccc(Cl)cc2)cc1)C(=O)O` (stereo not drawn) [VIII, 4'-chloro-α-[2-[2-[[(2-ethoxy-2-oxo-ethyl)amino]carbonyl]phenyl]ethyl]-γ-oxo-[1,1'-biphenyl]-4-butanoic acid], in that order: 56.8 nM, 806 nM and 165 nM.
Consider `O=C(CC(CCc1ccc(C(=O)NCCc2ccccc2)cc1)C(=O)O)c1ccc(-c2ccc(Cl)cc2)cc1` (stereo not drawn) [Compound XX, 4'-chloro-γ-oxo-α-[2-[4-[[(2-phenylethyl)amino]carbonyl]phenyl]ethyl]-[1,1'-biphenyl]-4-butanoic acid], for which the Ki was 446 nM in assay [1] and 2000 nM in assay [2].
